From patent US20220288028A1, “A THERAPEUTIC APPROACH FOR TREATING NON-INFECTIOUS OCULAR IMMUNOINFLAMMATORY DISORDERS” (The Schepens Eye Research Institute, Inc., priority 2019, published 2022)
Where a name gives a salt, the structure may show the parent alone.

Key:
ocular redness [1] = assay: Rabbit model of non-allergic (non-infectious) ocular redness induced by dapiprazole, Ocular Redness Index (ORI); format: in vivo
Source text: (§1) An Image J-based, objective quantification method of ocular redness severity was developed without relying on ophthalmologists' subjective scoring (Amparo, et al. “The Ocular Redness Index: A Novel Automated Method for Measuring Ocular Injection.” Investigative Ophthalmology & Visual Science, 2013, pp. Quick submit: 2017-06-18T21:14:33-0400). This digital scoring method automatically analyzes patient eye images and gives the score as Ocular Redness Index (ORI), which ranges on a continuous centesimal scale from 0 to 100, with 100 the most severe redness. This method has been used in the animal models of ocular redness to evaluate the severity of redness.
(§2) The results obtained can be seen in FIGS. 10-14. In the evaluation of ocular redness in animal models using Ocular Redness Index (ORI) with Image J the following steps. Step 1: The conjunctival image was captured by means of a digital camera and was recorded as an RGB color JPEG image (3264×2448 pixels). […] Step 3: An ROI (Region Of Interest, area inside the yellow circle) was selected as the evaluation area by user, and the program read the red-green-blue (RGB) values of each pixel, converting it to huesaturation-value (HSV) space, and ultimately converted these values into a numeric centesimal value for redness in the selected area automatically. […]

ocular redness [2] = assay: Guinea pig model of allergic ocular redness induced by histamine, Ocular Redness Index (ORI); format: in vivo; settings: topical 1.0 mg/ml with 1.5 mg/ml histamine instillation, 20 μl; 1 hour; vs untreated induced control
Source text: as §1, §2

DED mice [3] = assay: Mouse model of DED, topical NK1R antagonist: flow cytometry of cornea, draining lymph nodes and conjunctivae; format: in vivo, C57BL/6 mice; settings: topical 1 μg/μl three times per day, day 14; for frequencies of MHC-II^hi CD11b^+ cells in the cornea: day 4 to 14; for frequencies of TH17 cells in the DLNs / frequencies of mature MHC-II^hi CD11b^+ cells in the DLNs / level of MHC-II expression by CD11b^+ cells in the DLNs: vs PBS
Description: (§3) Induction of Dry Eye Disease (DED): DED was induced by housing the mice in a low-humidity (relative humidity: <20%) controlled environment chamber (CEC) with constant airflow of 15 L/min and temperature of 21 to 23° C. for 14 days. Age- and sex-matched mice housed in room air conditions served as controls. Corneal epithelial disease was evaluated using fluorescein (Sigma-Aldrich) staining and scored using the National Eye Institute grading system (NEI, Bethesda, Md.; Chen Y. et al. IFN-gamma-Expressing TH17 Cells Are Required for Development of Severe Ocular Surface Autoimmunity. J Immunol 2017, 199:1163-9). 1 μl of 2.5% fluorescein was applied into the lateral conjunctival sac of the mice and after 3 minutes corneas were examined with a slit lamp biomicroscope under cobalt blue light. Punctate staining was recorded in a masked fashion with the standard National Eye Institute grading system of 0-3 for each of the five areas of the cornea.
Topical Treatment with NK1R Antagonist: Mice were assigned to one of four groups (n=5 each). 1 μg/μl of NK1R antagonists CP-99,994, L-733,060 (R&D systems, Minneapolis, MN) or PBS was administered topically three times per day from day 4 to day 14 after DED induction. Untreated DED mice served as controls.
Single Cell Suspension Preparation and Flow Cytometry: Submandibular and cervical draining lymph nodes (DLNs) were harvested and single cell suspensions were prepared. Cells were stimulated with phorbol 12-myristate 13-acetate (PMA, 50 ng/mL; Sigma-Aldrich) and Ionomycin (500 ng/mL; Sigma-Aldrich) for 6 hours in the presence of a commercial protein transport inhibitor (0.7 μL/100 μL media, Golgistop; BD Biosciences, San Jose, Calif.). Conjunctivae were harvested by lifting at the junction of bulbar and palpebral conjunctiva and dissecting along both bulbar and palpebral insertion points (Vannas Scissors; Storz, Bausch & Lomb). Conjunctiva samples were cultured in RPMI (Thermo Fisher Scientific, Waltham, Mass.) supplemented with 10% fetal bovine serum (FBS) and stimulated with PMA (50 ng/mL; Sigma-Aldrich) and Ionomycin (500 ng/mL; Sigma-Aldrich) in the presence of a protein transport inhibitor (0.7 μL/100 μL media, Golgistop; BD Biosciences) at 37° C. for 24 hours. Harvested corneas were digested in RPMI media containing 2 mg/ml collagenase type IV (Sigma-Aldrich) and 2 mg/ml DNase I (Roche) for 1 h at 37° C. The suspension was then filtered through a 70-μm cell strainer. Single-cell suspensions of DLN and cornea were stained with the following antibodies: Brilliant Violet 421-conjugated anti-mouse I-A/I-E (MHC-II), PE-conjugated anti-CD11c (BD Pharmingen, San Jose, Calif.), PerCP/Cy5.5-conjugated anti-CD11b, FITC-conjugated anti-CD4 (BioLegend, San Diego, Calif.), and PE-conjugated anti-interleukin 17A (eBioscience, San Diego, Calif.). Intranuclear staining with PE/Cy7-conjugated anti-Foxp3 (eBioscience) was performed after fixation and permeabilization of cells. Control samples were stained with appropriate isotype-matched antibodies. Stained cells were examined using an LSRII Flow Cytometer (BD Biosciences, Franklin Lakes, N.J., USA), and data were analyzed using commercial Summit software (Summit v4.3; Dako Colorado, Inc., Fort Collins, Colo.).

IL-17 = assay: Mouse model of DED, topical NK1R antagonist: real-time PCR of conjunctivae; format: in vivo, C57BL/6 mice; settings: topical 1 μg/μl three times per day; day 14; vs PBS; p=0.001
Description: as §3, with “1 μl of 2.5% fluorescein was applied into the lateral conjunctival sac of the mice and after 3 minutes corneas were examined with a slit lamp biomicroscope under cobalt blue light.” left out, “cornea. […]” for “cornea.”
Real-Time PCR: Bulbar and palpebral conjunctiva, cornea and trigeminal ganglion were harvested from mice and stored in TRIzol reagent (Invitrogen, Carlsbad, Calif.) at −80° C. until RNA was isolated and reverse-transcribed using RNeasy micro kit (Qiagen, Valencia, Calif.) and SuperScript III kit (Invitrogen). […] Samples were analyzed using a real-time PCR system (LightCycler 480 II System; Roche Applied Science, Indianapolis, Ind.), and results were analyzed by the comparative threshold cycle method, using GAPDH as an internal control.

DED mice [4] = assay: Mouse model of DED, topical NK1R antagonist: corneal fluorescein staining (CFS); format: in vivo, C57BL/6 mice; settings: topical 1 μg/μl three times per day, day 4 to 14; at day 7, 10 and 14; vs untreated and PBS-treated; p<0.05
Source text: FIGS. 6A, 6B, 7C, 8A-8C, and 9A-9D show the results of evaluating the in vivo therapeutic efficacy of blocking SP signaling in animal models of DED and ocular redness. DED was induced by exposing wild-type mice to desiccating stress using a controlled environment chamber for 14 days. No any other manipulations were used in the model. After 4 days induction, a clinical overt disease developed in mice (art-recognized model) and then a topical NK1R antagonist of either CP-99,994 or L-733,060, 3×/day, started and lasted for 10 days (until day 14). Untreated or PBS-treated mice serve as controls. Clinical severity of the disease was evaluated by clinical fluorescein scoring (CFS) using the National Eye Institute/Industry NEI grading scheme. […]
Induction of Dry Eye Disease (DED): DED was induced by housing the mice in a low-humidity (relative humidity: <20%) controlled environment chamber (CEC) with constant airflow of 15 L/min and temperature of 21 to 23° C. for 14 days. […] Corneal epithelial disease was evaluated using fluorescein (Sigma-Aldrich) staining and scored using the National Eye Institute grading system (NEI, Bethesda, Md.; Chen Y. et al. IFN-gamma-Expressing TH17 Cells Are Required for Development of Severe Ocular Surface Autoimmunity. J Immunol 2017, 199:1163-9). […]

[5] = system: corneal epithelial wound healing; settings: subconjunctival injection, diabetic mice; cited from earlier work
[6] = prevents use as an eye drop formulation; cited from earlier work

## Ic1ccccc1CN[C@@H]1C2CCN(CC2)[C@@H]1C(c1ccccc1)c1ccccc1 (racemic) [L-703,606]
Ocular redness [1]; topical 1.0 mg/ml with 5% dapiprazole instillation, 40 μl, 1 hour, vs untreated induced control
  ocular redness (change in ORI score): rapidly and consistently ameliorating the ocular redness
Ocular redness [2]
  ocular redness (change in ORI score): rapidly and consistently ameliorating the ocular redness

## COc1ccccc1CN[C@H]1CCCN[C@H]1c1ccccc1 [CP-99,994, (2S,3S)-N-[(2-Methoxyphenyl)methyl]-2-phenyl-3-piperidinamine dihydrochloride]
DED mice [3]
  frequencies of MHC-II^hi CD11b^+ cells in the cornea: significantly lower
  frequencies of TH17 cells in the DLNs: significantly decreased
  frequencies of mature MHC-II^hi CD11b^+ cells in the DLNs: significant decrease
  level of MHC-II expression by CD11b^+ cells in the DLNs: significant decrease
IL-17
  mRNA expression levels of IL-17 in conjunctivae: significant reduction
DED mice [4]
  CFS scores and DED severity: significantly reduced CFS scores and DED severity

## FC(F)(F)c1cc(CO[C@H]2CCCN[C@H]2c2ccccc2)cc(C(F)(F)F)c1 [L-733,060, (2S,3S)-3-[[3,5-bis(Trifluoromethyl)phenyl]methoxy]-2-phenylpiperidine hydrochloride]
DED mice [3]
  frequencies of MHC-II^hi CD11b^+ cells in the cornea: significantly lower
  frequencies of TH17 cells in the DLNs: significantly decreased
  frequencies of mature MHC-II^hi CD11b^+ cells in the DLNs: significant decrease
  level of MHC-II expression by CD11b^+ cells in the DLNs: significant decrease
[5]
  protective role of SP on epithelial healing: significantly inhibits the protective role of SP on epithelial healing
IL-17
  mRNA expression levels of IL-17 in conjunctivae: significant reduction
DED mice [4]
  CFS scores and DED severity: significantly reduced CFS scores and DED severity

## C[C@@H](O[C@H]1OCCN(Cc2n[nH]c(=O)[nH]2)[C@H]1c1ccc(F)cc1)c1cc(C(F)(F)F)cc(C(F)(F)F)c1 [MK-869, 5-[[(2R,3S)-2-[(1R)-[3,5-Bis(trifluoromethyl)phenyl]ethoxy]-3-(4-fluorophenyl)-4-morpholinylinyl]methyl]-1,2-dihydro-3H-1,2,4-triazol-3-one]
[6]
  water solubility: Poor water solubility

## Cc1ccccc1N1CCN(CCc2nnc3n2CCCC3)CC1 [dapiprazole]
Ocular redness [1]; 5% dapiprazole, 40 μl topical, series of increasing concentrations, 1-hour observation, vs PBS
  change in ORI score after induction: highest increase in ORI score
